Test results from patent publication US4927919A, “Chartreusin derivatives and salts thereof” (Ishihara Sangyo Kaisha, Ltd., priority 1985, dated 1990).

What was measured:
L-1210 leukemia = conditions: cancer inoculated i.p., drug i.p.; cited from earlier work
[1] = in vivo; cited from earlier work
cancer = conditions: different sites; cited from earlier work
P-388 leukemia = conditions: cancer inoculated i.p., drug i.p.; cited from earlier work
P-388 leukemia cells = assay: Antitumor activity against P-388 leukemia cells (i.p. implanted, i.v. drug); type: in vivo, BDF1 mice; conditions: comparison; chartreusin suspension in 0.2M Na2HPO4 / N,N-dimethylacetamide (4:1)
[2] = Intestinal excretion percentage of drugs; type: in vivo; conditions: DDY mice, i.v. 40 mg/kg-b.w., 2 hours
Description: Each drug to be tested was administered to DDY mice intravenously at a dose of 40 mg/kg-b.w., and after 2 hours, contents of the small intestine and the large intestine and feces were extracted with a mixed solvent of chloroform and methanol. The extract was concentrated and each compound to be tested was quantitatively determined by high-speed liquid chromatography.
The drug tested was solution which prepared by dissolving the compound No. 17 in a small amount of dimethylacetoamide, followed by adding thereto a small amount of a surface active agent (e.g., Tween-80 ) and physiological saline.

B-16 melanoma = conditions: cancer inoculated i.p., drug i.p.; cited from earlier work

CO[C@H]1[C@@H](O)[C@@H](C)O[C@H](O[C@H]2[C@H](Oc3cccc4c(O)c5c(=O)oc6ccc(C)c7c(=O)oc(c34)c5c67)O[C@H](C)[C@H](O)[C@@H]2O)[C@@H]1O [Chartreusin, chartreusin]
effect against L-1210 leukemia (in words) (L-1210 leukemia): effective | biliary excretion relative to absorption to tissues (in words) [1]: biliary excretion of chartreusin essentially has the precedence over absorption thereof to tissues | effect when site of cancer inoculation and site of administration were different (in words) (cancer): not effective at all | effect against P-388 leukemia (in words) (P-388 leukemia): effective | T/C (%) (P-388 leukemia cells): 105% | Intestinal excretion percentage [(total amount of excretion/dose) × 100] [2]: 37.6% | effect against B-16 melanoma (in words) (B-16 melanoma): effective
